Source: patent US20050202465A1, “Thymidylate synthase gene and metastasis” (The Johns Hopkins University, priority 2004, published 2005)

System: colorectal cancer metastases
Assay: Overall survival after surgical removal of metastases in 5-FU treated colorectal cancer patients, by TYMS amplification status
Format: in vivo, human
Settings: for Median survival after metastasis removal / Survival range after metastasis removal: previous treatment 5-FU
Description: Tissue samples, including normal tissues, primary tumors, and metastases were obtained from colorectal cancer patients undergoing surgery at the Johns Hopkins Hospital between 1990 and 2002. A diagnosis of colorectal cancer was established by histological examination of surgical specimens and clinical information was retrospectively retrieved from patient records. Acquisition of tissue specimens and examination of clinical records was approved by an institutional review board and was performed in accordance with HIPAA regulations. Metastatic samples were obtained from complete resections, debulking, or biopsies of metastatic lesions.
Overall survival was calculated from the date of the surgical excision of the metastasis to the date of death or last follow-up and computed by Kaplan-Meier method. Data were censored when patients were lost to follow-up.
A corollary of this idea is that such patients would fare worse than those without TYMS amplification, as post-surgical therapy of patients with metastatic cancers often involves retreatment with 5-FU plus other agents (see Introduction). To evaluate this possibility, we compared the survival of patients with metastatic lesions that had previously been treated with 5-FU, segregated according to TYMS amplification status. Although the average age, stage at initial diagnosis, and metastasis size and location were similar between patients with and without increased TYMS gene copies, the median overall survival following surgical removal of metastases among patients with TYMS gene amplification was 329 days, as compared with 1021 days for patients without TYMS amplification (Table 2, p<0.01, t-Test). […] These differences were also significant in Kaplan-Meier analyses (FIG. 4).

[1] = Group A (n = 6), TYMS amplified in metastasis
[2] = Group B (n = 21), TYMS not amplified in metastasis

O=c1[nH]cc(F)c(=O)[nH]1 [5-FU, 5-fluorouracil] was tested, and the “Relative risk of death, patients with TYMS amplification vs without” value (5-FU treated patients, proportional hazard model, 95% confidence interval 1.06-11.4, p<0.05) was 3.5 fold, the “Median survival after metastasis removal” value [1] was 329 days and the “Survival range after metastasis removal” value [1] was “(109-708 days)”. For the same compound, the “Median survival after metastasis removal” value [2] was 1021 days and the “Survival range after metastasis removal” value [2] was “(255-3790 days)”.
